In paper PMC8031368 (ACS chemical biology, 2020):

Columns and labels:
GR = target: T1, GR (Homo sapiens, UniProt P04150); test: 3H-dexamethasone displacement assay on DU145 cells; type: binding
T1 sequence (P04150 1-777): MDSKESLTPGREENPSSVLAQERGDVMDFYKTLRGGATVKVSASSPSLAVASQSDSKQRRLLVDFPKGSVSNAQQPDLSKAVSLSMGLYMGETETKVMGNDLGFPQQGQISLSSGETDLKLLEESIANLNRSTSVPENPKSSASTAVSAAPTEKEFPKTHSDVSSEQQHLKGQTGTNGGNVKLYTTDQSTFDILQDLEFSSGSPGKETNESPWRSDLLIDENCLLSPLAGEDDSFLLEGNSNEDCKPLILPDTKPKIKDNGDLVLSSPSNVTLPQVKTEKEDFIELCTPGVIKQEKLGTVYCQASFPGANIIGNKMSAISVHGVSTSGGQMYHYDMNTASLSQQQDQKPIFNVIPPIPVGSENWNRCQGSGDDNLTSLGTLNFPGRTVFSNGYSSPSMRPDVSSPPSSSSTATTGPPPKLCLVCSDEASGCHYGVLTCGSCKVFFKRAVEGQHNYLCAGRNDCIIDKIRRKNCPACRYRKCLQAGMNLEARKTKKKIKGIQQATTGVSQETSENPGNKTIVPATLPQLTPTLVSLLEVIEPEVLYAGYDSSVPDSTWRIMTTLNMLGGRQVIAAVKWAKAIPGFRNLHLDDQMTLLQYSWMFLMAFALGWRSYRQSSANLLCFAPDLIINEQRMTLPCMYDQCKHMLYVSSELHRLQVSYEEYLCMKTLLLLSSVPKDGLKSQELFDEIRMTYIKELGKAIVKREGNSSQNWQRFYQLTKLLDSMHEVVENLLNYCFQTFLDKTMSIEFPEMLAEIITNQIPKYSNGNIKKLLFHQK

AR = target: T2, AR (Homo sapiens, UniProt P10275); test: 3H-dihydrotestosterone displacement assay on LNCaP-AR cells; type: binding
T2 sequence (P10275 1-920): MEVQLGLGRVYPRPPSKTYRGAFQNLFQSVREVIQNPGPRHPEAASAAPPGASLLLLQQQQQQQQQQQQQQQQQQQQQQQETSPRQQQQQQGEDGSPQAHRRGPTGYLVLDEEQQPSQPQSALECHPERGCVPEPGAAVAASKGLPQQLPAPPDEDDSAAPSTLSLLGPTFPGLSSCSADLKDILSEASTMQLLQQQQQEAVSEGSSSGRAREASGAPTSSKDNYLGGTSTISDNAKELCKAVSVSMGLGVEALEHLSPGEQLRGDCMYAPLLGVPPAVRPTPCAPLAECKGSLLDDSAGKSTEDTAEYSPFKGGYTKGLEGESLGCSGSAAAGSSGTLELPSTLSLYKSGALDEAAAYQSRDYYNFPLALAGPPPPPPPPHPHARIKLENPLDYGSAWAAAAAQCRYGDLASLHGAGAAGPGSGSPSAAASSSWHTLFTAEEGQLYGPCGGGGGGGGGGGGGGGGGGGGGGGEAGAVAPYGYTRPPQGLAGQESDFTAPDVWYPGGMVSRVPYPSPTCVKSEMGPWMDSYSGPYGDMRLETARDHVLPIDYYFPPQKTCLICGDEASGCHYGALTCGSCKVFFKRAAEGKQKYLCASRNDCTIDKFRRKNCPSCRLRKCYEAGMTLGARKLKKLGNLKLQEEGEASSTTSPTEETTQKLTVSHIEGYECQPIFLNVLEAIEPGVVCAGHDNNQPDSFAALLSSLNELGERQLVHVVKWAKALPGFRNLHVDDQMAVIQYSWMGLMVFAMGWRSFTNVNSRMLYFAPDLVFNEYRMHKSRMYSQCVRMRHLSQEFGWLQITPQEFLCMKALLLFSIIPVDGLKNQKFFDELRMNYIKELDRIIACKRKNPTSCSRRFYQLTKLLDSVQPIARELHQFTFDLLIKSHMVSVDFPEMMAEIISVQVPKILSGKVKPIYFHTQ

PR = target: T3, PR (Homo sapiens, UniProt P06401); test: 3H-progesterone displacement assay on MCF7 cells; type: binding
T3 sequence (P06401 1-933): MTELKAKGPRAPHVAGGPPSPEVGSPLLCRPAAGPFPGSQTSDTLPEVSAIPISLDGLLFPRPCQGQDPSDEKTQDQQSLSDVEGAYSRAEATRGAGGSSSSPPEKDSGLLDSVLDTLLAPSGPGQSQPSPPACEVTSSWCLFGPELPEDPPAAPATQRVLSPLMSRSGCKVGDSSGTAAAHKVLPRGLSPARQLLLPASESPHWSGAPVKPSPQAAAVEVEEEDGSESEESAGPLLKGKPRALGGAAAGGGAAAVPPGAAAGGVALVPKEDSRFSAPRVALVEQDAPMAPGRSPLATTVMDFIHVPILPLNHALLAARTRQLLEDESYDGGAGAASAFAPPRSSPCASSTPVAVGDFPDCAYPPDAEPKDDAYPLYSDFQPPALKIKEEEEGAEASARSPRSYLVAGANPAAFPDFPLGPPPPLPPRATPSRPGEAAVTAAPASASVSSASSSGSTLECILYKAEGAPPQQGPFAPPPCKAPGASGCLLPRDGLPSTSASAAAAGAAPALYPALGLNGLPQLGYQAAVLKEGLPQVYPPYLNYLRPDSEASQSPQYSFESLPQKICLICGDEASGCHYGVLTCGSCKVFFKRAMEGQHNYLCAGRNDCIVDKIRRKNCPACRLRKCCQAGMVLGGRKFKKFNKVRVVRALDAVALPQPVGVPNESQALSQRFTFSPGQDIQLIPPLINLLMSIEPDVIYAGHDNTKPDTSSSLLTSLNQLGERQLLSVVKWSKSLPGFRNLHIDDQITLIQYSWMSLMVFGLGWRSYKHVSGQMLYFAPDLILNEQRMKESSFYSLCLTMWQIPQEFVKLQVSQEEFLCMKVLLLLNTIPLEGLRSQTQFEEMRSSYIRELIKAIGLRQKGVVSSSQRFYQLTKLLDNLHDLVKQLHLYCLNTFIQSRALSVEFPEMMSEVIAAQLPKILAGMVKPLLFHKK

ER = target: T4, ER (Homo sapiens, UniProt P03372); test: 3H-estradiol displacement assay on MCF7 cells; type: binding
T4 sequence (P03372 1-595): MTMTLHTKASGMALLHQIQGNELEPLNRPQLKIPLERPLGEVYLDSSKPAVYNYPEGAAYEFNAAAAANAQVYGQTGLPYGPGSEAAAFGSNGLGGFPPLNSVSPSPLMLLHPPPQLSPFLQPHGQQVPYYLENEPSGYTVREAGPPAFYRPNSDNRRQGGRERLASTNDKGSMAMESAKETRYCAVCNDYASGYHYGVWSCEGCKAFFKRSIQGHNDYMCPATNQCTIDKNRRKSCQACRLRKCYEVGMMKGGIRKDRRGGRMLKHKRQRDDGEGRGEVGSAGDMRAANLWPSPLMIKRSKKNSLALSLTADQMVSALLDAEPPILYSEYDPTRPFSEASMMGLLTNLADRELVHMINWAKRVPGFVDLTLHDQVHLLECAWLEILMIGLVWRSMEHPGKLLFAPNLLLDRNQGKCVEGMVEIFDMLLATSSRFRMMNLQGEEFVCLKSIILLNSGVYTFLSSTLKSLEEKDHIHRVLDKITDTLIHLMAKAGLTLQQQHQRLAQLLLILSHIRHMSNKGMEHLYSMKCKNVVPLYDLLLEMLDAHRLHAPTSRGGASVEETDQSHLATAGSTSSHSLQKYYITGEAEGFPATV

[1] = test system: GR target genes (GILZ, FKBP5, Per1) in DU145 cells; test: Real time PCR of GR target genes in DU145 cells; type: cell-based, human

COc1cccc2c1-c1ccc3c(c1C(Cc1ccc(F)cc1)O2)C(C)=CC(C)(C)N3 (centres unmarked) [YJH08, 5-(4-fluorobenzyl)-10-methoxy-2,2,4-trimethyl-2,5-dihydro-1H-chromeno[3,4-f]quinoline]
Ki (GR; Ki GR, 3H-dexamethasone displacement, DU145 cells, one site Ki fit): 0.401 nM | Ki (GR; Ki for GR): ~0.4 nM | Ki (AR): 220 nM | Ki (PR): 555 nM | Ki (ER): 19 µM | levels of GR target genes GILZ, FKBP5 ([1]; DU145 cells, 10 μM, 6 h exposure, real time PCR): elevated | induction of Per1 ([1]; DU145 cells, YJH08 10 μM, 6 h exposure): induced by dexamethasone but not YJH08 | GR functional activity (overall assessment) ([1]; from target gene induction in DU145 cells): mild GR agonist
